These results are taken from patent publication US12297190B2, “Modulators of STING (stimulator of interferon genes)” (PFIZER INC., priority 2019, dated 2025).

Where only a bound is given, the exact number is not on record here.

This test deals with R232-STING (Homo sapiens, UniProt Q86WV6, H232R). Kind of test: biochemical.
R232-STING, sequence (Q86WV6 155-341 H232R): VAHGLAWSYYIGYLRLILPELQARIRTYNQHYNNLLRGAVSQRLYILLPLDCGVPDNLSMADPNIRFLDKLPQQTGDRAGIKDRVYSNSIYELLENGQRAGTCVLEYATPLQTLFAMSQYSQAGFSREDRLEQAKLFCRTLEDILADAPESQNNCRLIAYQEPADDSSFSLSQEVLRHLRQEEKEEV
Usually Ki stands for a measure of affinity in units of concentration, obtained from inhibition or displacement. A lower Ki goes with a stronger hold on the target. Compound `CCn1nc(C)cc1-c1nnc(-c2cc(C(N)=O)cc3c2cnn3CC(C)(C)CN(C)C)[nH]1` [ZZZ013, 1-[3-(dimethylamino)-2,2-dimethylpropyl]-4-[5-(1-ethyl-3-methyl-1H-pyrazol-5-yl)-4H-1,2,4-triazol-3-yl]-1H-indazole-6-carboxamide] registered a Ki of more than 990 nM.
For `CCn1nc(C)cc1-c1nnc(-c2cc(C(N)=O)cc3c2cnn3C[C@@H](C)N(C)C)[nH]1` [ZZZ015, 1-[(2R)-2-(dimethylamino)propyl]-4-[5-(1-ethyl-3-methyl-1H-pyrazol-5-yl)-4H-1,2,4-triazol-3-yl]-1H-indazole-6-carboxamide] the value was more than 990 nM; for `CCn1nc(C)cc1-c1nnc(-c2cc(C(N)=O)cc3c2cnn3CC2CCCN3CCCCC23)[nH]1` (stereo not drawn) [ZZZ016, 4-[5-(1-ethyl-3-methyl-1H-pyrazol-5-yl)-4H-1,2,4-triazol-3-yl]-1-[(octahydro-2H-quinolizin-1-yl)methyl]-1H-indazole-6-carboxamide], 826 nM.
For the compound `CCn1nc(C)cc1-c1nnc(-c2cc(C(N)=O)cc3c2cnn3C[C@H]2[C@@H]3CN(C(C)C)C[C@@H]32)[nH]1` [ZZZ017, 4-[5-(1-ethyl-3-methyl-1H-pyrazol-5-yl)-4H-1,2,4-triazol-3-yl]-1-{[(1R,5S,6r)-3-(propan-2-yl)-3-azabicyclo[3.1.0]hexan-6-yl]methyl}-1H-indazole-6-carboxamide], the Ki was more than 990 nM.
For `CCn1nc(C)cc1-c1nnc(-c2cc(C(N)=O)cc3c2cnn3CCN2CCC(C)CC2)[nH]1` [ZZZ018, 4-[5-(1-ethyl-3-methyl-1H-pyrazol-5-yl)-4H-1,2,4-triazol-3-yl]-1-[2-(4-methylpiperidin-1-yl)ethyl]-1H-indazole-6-carboxamide] the value was 748 nM; for `CCn1nc(C)cc1-c1nnc(-c2cc(C(N)=O)cc3c2cnn3CC23CCCN2CCC3)[nH]1` [ZZZ019, 4-[5-(1-ethyl-3-methyl-1H-pyrazol-5-yl)-4H-1,2,4-triazol-3-yl]-1-[(tetrahydro-1H-pyrrolizin-7a(5H)-yl)methyl]-1H-indazole-6-carboxamide], 726 nM; for `CCn1nc(C)cc1-c1nnc(-c2cc(C(N)=O)cc3c2cnn3[C@@H](C)CN(C)C)[nH]1` [ZZZ020, 1-[(2S)-1-(dimethylamino)propan-2-yl]-4-[5-(1-ethyl-3-methyl-1H-pyrazol-5-yl)-4H-1,2,4-triazol-3-yl]-1H-indazole-6-carboxamide], more than 990 nM.
`CCn1nc(C)cc1-c1nnc(-c2cc(C(N)=O)cc3c2cnn3CCOCCN(C)C)[nH]1` [ZZZ021, 1-{2-[2-(dimethylamino)ethoxy]ethyl}-4-[5-(1-ethyl-3-methyl-1H-pyrazol-5-yl)-4H-1,2,4-triazol-3-yl]-1H-indazole-6-carboxamide] displayed an inhibition constant Ki of more than 990 nM.
In the case of `CCn1nc(C)cc1-c1nnc(-c2cc(C(N)=O)cc3c2cnn3[C@@H](C)CN2CCCC2)[nH]1` [ZZZ024, 4-[5-(1-ethyl-3-methyl-1H-pyrazol-5-yl)-4H-1,2,4-triazol-3-yl]-1-[(2S)-1-(pyrrolidin-1-yl)propan-2-yl]-1H-indazole-6-carboxamide] it was more than 990 nM.
For `CCn1nc(C)cc1-c1nnc(-c2cc(C(N)=O)cc3c2cnn3C(C)CN2CCCCC2)[nH]1` (stereo not drawn) [ZZZ026, 4-[5-(1-ethyl-3-methyl-1H-pyrazol-5-yl)-4H-1,2,4-triazol-3-yl]-1-[1-(piperidin-1-yl)propan-2-yl]-1H-indazole-6-carboxamide] the value was more than 990 nM; for `CCn1nc(C)cc1-c1nnc(-c2cc(C(N)=O)cc3c2cnn3C[C@H]2CCCN2C)[nH]1` [ZZZ027, 4-[5-(1-ethyl-3-methyl-1H-pyrazol-5-yl)-4H-1,2,4-triazol-3-yl]-1-{[(2R)-1-methylpyrrolidin-2-yl]methyl}-1H-indazole-6-carboxamide], more than 990 nM.
For `CCn1nc(C)cc1-c1nnc(-c2cc(C(N)=O)cc3c2cnn3CC2(CN(C)C)CC2)[nH]1` [ZZZ028, 1-({1-[(dimethylamino)methyl]cyclopropyl}methyl)-4-[5-(1-ethyl-3-methyl-1H-pyrazol-5-yl)-4H-1,2,4-triazol-3-yl]-1H-indazole-6-carboxamide] the value was more than 990 nM.
